# Results reported in the supplement of paper PMC11208160.
# Experiment: recombinant UMI read abundance after kanamycin selection (control-corrected) (log10(CPM+1)); higher = more efficient recombination; extreme values may be limits of the assay; sequences stand for … in AGTGCAGAGAAAATCGGCCAGTTTTCTCTGCCTGCAGTCCGCATGCCGTGGGACCCCTTGGGTTCTAACCTGTTGCCTAGATTTATGCAGCGGACTGCCTTTCTCCCAAAGTGATAAACCGG…AGGTTGGTTTCACT; site = the 11-nt donor
# Outline: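 After plating on IPTG (0.07 mM) plus kanamycin, or unselected, in two replicates, recombinant UMIs were PCR-amplified across the donor–target junction and sequenced. The cells were Escherichia coli co-electroporated with a UMI-tagged donor and donor-binding-loop pair library and a target plasmid with a fixed target and T7-inducible IS621 bridge recombinase. Values are log10(CPM+1), with CPM averaged over replicates and scaled by control-derived factors.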
row,Sequence,recombinant UMI read abundance (log10)
1,TGCTCATCATGGACCGGTTTTCCCGGTAATCCGTATTTGCT (site CGATCATCTAG),0
2,TGCTCATCATGGACCGGTTTTCCCGGTAATCCGTATTTGCT (site TGCTCATCTAG),1.08
3,TGCTCCACATGGACCGGTTTTCCCGGTAATCCGTATTTGGA (site TGCTCCACTTC),0
4,TGCTCCCCATGGACCGGTTTTCCCGGTAATCCGTATTTGGT (site TGCTCCCCTAC),0.0121
5,TGCTGCGCATGGACCGGTTTTCCCGGTAATCCGTATTTGTG (site TGCTGCGCTCA),0.0115
6,TGCTGGGCATGGACCGGTTTTCCCGGTAATCCGTATTTGGT (site TGCTAGGCTAC),0.109
7,TGCTGGGCATGGACCGGTTTTCCCGGTAATCCGTATTTGGT (site TGCTCGGCTAC),0.0121
8,TGCTGGGCATGGACCGGTTTTCCCGGTAATCCGTATTTGGT (site TGCTGGGCTAC),0.306
9,TGCTGGGCATGGACCGGTTTTCCCGGTAATCCGTATTTGGT (site TGCTTGGCTAC),0.0187
10,TGCTGTCCATGGACCGGTTTTCCCGGTAATCCGTATTTGTT (site TGCTGTCCTAA),0.00448
11,TGGAAGACATGGACCGGTTTTCCCGGTAATCCGTATTTGCG (site AGGAAGACTTG),0
12,TGGAAGACATGGACCGGTTTTCCCGGTAATCCGTATTTGCG (site TGGAAGACTCG),2.05
13,TGGACAACATGGACCGGTTTTCCCGGTAATCCGTATTTGTG (site TGGACAACTCA),0.209
14,TGGACCTCATGGACCGGTTTTCCCGGTAATCCGTATTTGAG (site TGGACCTCTCT),0.96
15,TGGATCACATGGACCGGTTTTCCCGGTAATCCGTATTTGCT (site TGGATCACTAG),1.72
16,TGGCAACCATGGACCGGTTTTCCCGGTAATCCGTATTTGCT (site TGGCAACCTAG),0
17,TGGCAAGCATGGACCGGTTTTCCCGGTAATCCGTATTTGGC (site TGGCAAGCTGC),0.585
18,TGGCATACATGGACCGGTTTTCCCGGTAATCCGTATTTGTA (site TGGCATACTTA),0.751
19,TGGCCGGCATGGACCGGTTTTCCCGGTAATCCGTATTTGGA (site TGGCCGGCTAC),0.0385
20,TGGCCGGCATGGACCGGTTTTCCCGGTAATCCGTATTTGGA (site TGGCCGGCTCC),0.0416
21,TGGCCGGCATGGACCGGTTTTCCCGGTAATCCGTATTTGGA (site TGGCCGGCTGC),0
22,TGGCCGGCATGGACCGGTTTTCCCGGTAATCCGTATTTGGA (site TGGCCGGCTTC),0.0151
23,TGGCCGGCATGGACCGGTTTTCCCGGTAATCCGTATTTGGG (site TGGCCGGCTAC),0.0282
24,TGGCCGGCATGGACCGGTTTTCCCGGTAATCCGTATTTGGG (site TGGCCGGCTCC),0.059
25,TGGCCGGCATGGACCGGTTTTCCCGGTAATCCGTATTTGGG (site TGGCCGGCTGC),0

row,Sequence,recombinant UMI read abundance (log10)
1,TGGCCGGCATGGACCGGTTTTCCCGGTAATCCGTATTTGGG (site TGGCCGGCTTC),0.00405
2,TGGCCGGCATGGACCGGTTTTCCCGGTAATCCGTATTTGTC (site TGGCCGGCTGA),0.815
3,TGGCCGGCATGGACCGGTTTTCCCGGTAATCCGTATTTGTC (site TGGCCGGCTGC),0
4,TGGCCGGCATGGACCGGTTTTCCCGGTAATCCGTATTTGTC (site TGGCCGGCTGG),0
5,TGGCCGGCATGGACCGGTTTTCCCGGTAATCCGTATTTGTC (site TGGCCGGCTGT),0
6,TGGCGGGCATGGACCGGTTTTCCCGGTAATCCGTATTTGGC (site TGGCAGGCTGC),1.38
7,TGGCGGGCATGGACCGGTTTTCCCGGTAATCCGTATTTGGC (site TGGCCGGCTGC),0.00581
8,TGGCGGGCATGGACCGGTTTTCCCGGTAATCCGTATTTGGC (site TGGCGGGCTGC),1.79
9,TGGCGGGCATGGACCGGTTTTCCCGGTAATCCGTATTTGGC (site TGGCTGGCTGC),1.01
10,TGGCGGGCATGGACCGGTTTTCCCGGTAATCCGTATTTGTT (site TGGCGGGCTAA),0.701
11,TGGCTCCCATGGACCGGTTTTCCCGGTAATCCGTATTTGGT (site TGGCTCCCTAC),0.203
12,TGGCTGGCATGGACCGGTTTTCCCGGTAATCCGTATTTGGC (site TGGCAGGCTGC),0
13,TGGCTGGCATGGACCGGTTTTCCCGGTAATCCGTATTTGGC (site TGGCCGGCTGC),0
14,TGGCTGGCATGGACCGGTTTTCCCGGTAATCCGTATTTGGC (site TGGCGGGCTGC),0
15,TGGCTGGCATGGACCGGTTTTCCCGGTAATCCGTATTTGGC (site TGGCTGGCTGC),1.33
16,TGGGCAACATGGACCGGTTTTCCCGGTAATCCGTATTTGTG (site TGGGCAACTCA),0.0056
17,TGGGCACCATGGACCGGTTTTCCCGGTAATCCGTATTTGCA (site AGGGCACCTTG),0.00499
18,TGGGCACCATGGACCGGTTTTCCCGGTAATCCGTATTTGCA (site CGGGCACCTTG),0.00478
19,TGGGCACCATGGACCGGTTTTCCCGGTAATCCGTATTTGCA (site GGGGCACCTTG),0
20,TGGGCACCATGGACCGGTTTTCCCGGTAATCCGTATTTGCA (site TGGGCACCTTG),0.00258
21,TGGGCGGCATGGACCGGTTTTCCCGGTAATCCGTATTTGAT (site TGGGCGGCTAT),1.11
22,TGGTAAGCATGGACCGGTTTTCCCGGTAATCCGTATTTGGC (site TGGTAAGCTGC),2.86
23,TGGTAATCATGGACCGGTTTTCCCGGTAATCCGTATTTGTG (site TGGTAATCTCA),1.65
24,TGGTCACCATGGACCGGTTTTCCCGGTAATCCGTATTTGTC (site GTACTCACTCC),0.00879
25,TGGTGACCATGGACCGGTTTTCCCGGTAATCCGTATTTGTC (site TGGTGACCTGA),0

row,Sequence,recombinant UMI read abundance (log10)
1,TGTAAACCATGGACCGGTTTTCCCGGTAATCCGTATTTGAC (site TGTAAACCTGT),0
2,TGTAAACCATGGACCGGTTTTCCCGGTAATCCGTATTTGAC (site TGTACACCTGT),0
3,TGTAAACCATGGACCGGTTTTCCCGGTAATCCGTATTTGAC (site TGTAGACCTGT),0
4,TGTAAACCATGGACCGGTTTTCCCGGTAATCCGTATTTGAC (site TGTATACCTGT),0
5,TGTAAGACATGGACCGGTTTTCCCGGTAATCCGTATTTGGC (site TGTAAGACTGC),0
6,TGTACAACATGGACCGGTTTTCCCGGTAATCCGTATTTGAG (site TGTACAACTCT),0.0145
7,TGTACACCATGGACCGGTTTTCCCGGTAATCCGTATTTGAA (site TGTACACCTAT),0.0146
8,TGTACACCATGGACCGGTTTTCCCGGTAATCCGTATTTGAA (site TGTACACCTCT),0.00905
9,TGTACACCATGGACCGGTTTTCCCGGTAATCCGTATTTGAA (site TGTACACCTGT),0
10,TGTACACCATGGACCGGTTTTCCCGGTAATCCGTATTTGAA (site TGTACACCTTT),0.0198
11,TGTACACCATGGACCGGTTTTCCCGGTAATCCGTATTTGAT (site TGTACACCTAT),0.00557
12,TGTACACCATGGACCGGTTTTCCCGGTAATCCGTATTTGAT (site TGTACACCTCT),0
13,TGTACACCATGGACCGGTTTTCCCGGTAATCCGTATTTGAT (site TGTACACCTGT),0
14,TGTACACCATGGACCGGTTTTCCCGGTAATCCGTATTTGAT (site TGTACACCTTT),0.00971
15,TGTACCCCATGGACCGGTTTTCCCGGTAATCCGTATTTGAC (site TGTACACCTGT),0
16,TGTACCCCATGGACCGGTTTTCCCGGTAATCCGTATTTGAC (site TGTACCCCTGT),1.52
17,TGTACCCCATGGACCGGTTTTCCCGGTAATCCGTATTTGAC (site TGTACGCCTGT),0
18,TGTACCCCATGGACCGGTTTTCCCGGTAATCCGTATTTGAC (site TGTACTCCTGT),0.00417
19,TGTACTCCATGGACCGGTTTTCCCGGTAATCCGTATTTGAC (site TGTACACCTGT),0
20,TGTACTCCATGGACCGGTTTTCCCGGTAATCCGTATTTGAC (site TGTACCCCTGT),0.817
21,TGTACTCCATGGACCGGTTTTCCCGGTAATCCGTATTTGAC (site TGTACGCCTGT),0
22,TGTACTCCATGGACCGGTTTTCCCGGTAATCCGTATTTGAC (site TGTACTCCTGT),0
23,TGTAGTGCATGGACCGGTTTTCCCGGTAATCCGTATTTGCG (site TGTAGTGCTCG),0.963
24,TGTCCCCCATGGACCGGTTTTCCCGGTAATCCGTATTTGTA (site TGTACCCCTTA),0.013
25,TGTCCCCCATGGACCGGTTTTCCCGGTAATCCGTATTTGTA (site TGTCCCCCTTA),0.0699
